Experimental data reported in patent US20210261539A1, “COMPOUND HAVING BET INHIBITORY ACTIVITY AND PREPARATION METHOD AND USE THEREFOR” (Shanghai Haihe Pharmaceutical Co., Ltd., priority 2018, published 2021).

Test system: human NMC-derived xenograft
Test: not given
Details: human NMC-derived xenograft mouse model; cited from earlier work

| SMILES | tumor squamous differentiation and growth |
| --- | --- |
| Cc1sc2c(c1C)C(c1ccc(Cl)cc1)=N[C@@H](CC(=O)OC(C)(C)C)c1nnc(C)n1-2 [JQ1] | inhibited tumor squamous differentiation and growth and caused regression |

Target: T1, BRD4 BD1 (Homo sapiens, UniProt O60885)
T1 construct: Protein BRD4 BD1 used in the assay was purchased from Active Motif (cat. 31380); purchased Active Motif 31380
Test: HTRF in vitro enzyme activity assay, inhibition of BRD4 BD1 binding to acetylated H4 peptide
Details: IC50 values of the compounds against BRD4 BD1 binding; class symbols A/B/C
Procedure, shortened: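 Recombinant human BRD4 BD1 (30 nM final) incubated with compound and biotinylated tetra-acetylated H4(1-21) peptide, 30 min at 37 °C; 5-point 1:5 dilution series, 0.1% DMSO final. HTRF read after 3 h at RT with SA-XL665 and Eu(K)-labelled antibody; IC50 derived.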

| SMILES | IC50 [nM] |
| --- | --- |
| Cc1ccc(-n2c3ccccc3c(=O)n2-c2ccc3c(n2)N(C2CC2)C(C)C(=O)N3C)cn1 (single isomer, unassigned) [Example A50-P3, 6-(1-(6-methyl-pyridin-3-yl)-3-oxo-1,3-dihydro-2H-indazol-2-yl)-4-cyclopropyl-1-methyl-3-methyl-3,4-dihydropyridine [2,3-b]pyrazin-2(1H)-one] | ≤ 10 |
| CC1C(=O)N(C)c2ccc(-n3c(=O)c4ccccc4n3-c3ccc(C#N)cc3)nc2N1C1CC1 (centres unmarked) [Example A27-P1, 6-(1-(4-cyanophenyl)-3-oxo-1,3-dihydro-2H-indazol-2-yl)-4-cyclopropyl-1,3-dimethyl-3,4-dihydropyrido [2,3-b]pyrazin-2(1H)-one] | ≤ 10 |
| CC1C(=O)N(C)c2ccc(N3C(=O)c4ccccc4C3c3ccccc3)nc2N1CC(F)(F)F (centres unmarked) [Example A56-P1, 1,3-dimethyl-6-(1-oxo-3-phenylisoindolin-2-yl)-4-(2,2,2-trifluoroethyl)-3,4-dihydropyrido [2,3-b]pyrazin-2(1H)-one] | ≤ 10 |
| C[C@H]1Oc2nc(N3C(=O)c4ccccc4C3c3ccccn3)ccc2N(C)C1=O (single isomer, unassigned) [Example A121-P1] | ≤ 10 |
| C[C@H]1Oc2nc(N3C(=O)c4c(cccc4C(C)(C)O)C3c3ccc(F)cc3)ccc2N(C)C1=O (single isomer, unassigned) [Example A119-P1] | ≤ 10 |
| CC1C(=O)N(C)c2ccc(N3C(=O)CCC3c3cccnc3)nc2N1C1CC1 (single isomer, unassigned) [Example A14-P1, 4-cyclopropyl-1,3-dimethyl-6-(2-oxo-5-(pyridin-3-yl)pyrrolidin-1-yl)-3,4-dihydropyrido[2,3-b]pyrazin-2(1H)-one] | ≤ 10 |
| C[C@@H]1C(=O)N(C)c2ccc(N3C(=O)c4c(cccc4[S+](C)[O-])C3c3cccnc3)nc2N1C (single isomer, unassigned) [Example A63-P3] | ≤ 10 |
